Experimental data taken from patent publication US11684675B2, “Dimeric collagen hybridizing peptides and methods of using” (University of Utah Research Foundation, priority 2015, dated 2023).

Key:
[1] = tested on: crosslinked gelatin films; assay: Retention of CF-labelled CHPs in crosslinked gelatin films (bound at 4° C., washed at 25° C./r.t.); type: binding, porcine; settings: Example 2, washes at 4° C. then 25° C.
Description: (§1) (A) Fraction of peptide remaining in a crosslinked gelatin film after 17 h at 25° C. (10 total washes). Values are normalized to fluorescence remaining in wells after 6 washes at 4° C. (>95% removal of CHPs 9r, 6r, and 5r). All washes performed in 1×PBS. (B) CHPs (15 μM) premixed into 10% porcine gelatin and preheated to 80° C. (10 min) before being added to a 96 well plate. Excess CHP-gelatin mixture was removed, then the premix was incubated at 4° C. for 2 hours. Wells were washed at 4° C., 5 times (>95% removal of CHPs 9r, 6r, and 5r). Wells were then washed for 2 hours (6 washes total) at 25° C. to monitor CHP remaining in the well. (C) Fluorescence of CHPs remaining in crosslinked gelatin after incubation at 37° C. overnight without preheating, followed by washing with 1×PBS at 37° C. (20 h). (D) Fluorescence of CHPs remaining in crosslinked gelatin after incubation at 37° C. overnight (80° C. preheating, 10 min), followed by washing with 1×PBS at 37° C. (20 h).
Binding to Gelatin films. Peptide solutions (20 μM in PBS) were preheated to 80° C. for 10 minutes before being added directly to the crosslinked gelatin films. Peptides were allowed to fully equilibrate with the gel at 4° C. overnight before being exposed to repeated washes (4×30 min) at 4° to fully remove any non-specifically bound peptide. Gelatin wells were then washed at r.t. with PBS (5×1 h, lx 12 h) to measure retention within the gelatin films. […] To eliminate the possibility of these peptides merely becoming physically entrapped within the gelatin after forming triple helix or forming triple helix before binding, binding affinity was verified by producing a premix of the CHPs and Gelatin to eliminated diffusion-limited binding before washing the wells in a similar manner.
Fluorescence Binding: CHP binding to gelatin was monitored by conjugating a fluorescent Carboxyfluorescein (CF) molecule to the N-terminus of each peptide via standard SPPS. Solutions of the fluorescent peptides were heated to 80° C. for 5 min before injecting 50 μL onto a pre-prepared EDC-crosslinked thin gelatin film in a 96 well plate. Peptides incubated overnight at 4° C., then washed with repeated rounds of 4° C. 1×PBS followed by 25° C. 1×PBS.

[2] = tested on: crosslinked gelatin films; assay: Binding of CF-labelled CHPs to crosslinked gelatin films at 37° C. with and without preheating; parameters: species or system porcine; settings: 20 μM, 37° C. overnight, PBS wash 20 h, FIG. 6C
Description: FIGS. 3A and 3B show the affinity of CHPs to gelatin films as monitored by fluorescence of conjugated CF fluorophore (492 ex, 533 em). (A) Fluorescence of CHPs bound to crosslinked gelatin after incubation at 37° C. overnight with no workup. (B) Fluorescence of CHPs remaining in crosslinked gelatin after incubation at 37° C. overnight without preheating, followed by washing with 1×PBS at 37° C. (20 h).
as §1
Dimeric CHPs were assessed for their ability to bind to collagen strands in crosslinked gelatin films. CHP solutions (20 μM in PBS) were added directly to the crosslinked gelatin films. For heated experiments, CHPs were preheated to 80° C. for 10 minutes before addition. Peptides were allowed to fully equilibrate with the gel at 37° C. overnight before being exposed to repeated washes (4×, PBS) at 37° C. to fully remove any non-specifically bound peptide and to determine binding level at body temperature. To measure retention, peptides were bound as previously described, but were subsequently washed with PBS 37° C. (5×1 h, 1×12 h) to measure retention within the gelatin films. […] Additionally, after a period of 20 hours, higher level of the dimeric CHP remained in the gelatin compared to the monomeric CHP.
A major limitation of the use of CHP in vivo, is the requirement of the triple helix to be fully disassembled before being injected. […] For this test, peptide solutions were allowed to warm to room temperature before being added (50 μL, 20 μM) to previously prepared crosslinked gelatin films. Solutions were then incubated at 37° C. overnight before removing the solution. Wells were washed at 37° C. with PBS (20 h) to determine binding. Preheated samples were prepared and incubated in the same way, but with preheating (80° C., 10 min) before being added to the crosslinked gelatin wells.

porcine gelatin = assay: SPR gelatin capture by immobilized biotinylated CHPs; type: binding; settings: gelatin 25 μg/mL
Description: FIGS. 7A and 7B show SPR data for porcine gelatin capture by immobilized CHPs. […] Gelatin was applied to the sensor surface during the association phase, followed by elution with blank during dissociation phase. Association occurred for 981 s, followed by dissociation for 1800 s. Values were normalized to a 100% biotin lane, and were adjusted to the mass of peptide immobilized in each well. (A) Preheated (80° C., 10 min), quenched (0° C., 30 s) gelatin (25 μg/mL) was applied to the sensor at an ambient temperature of 37° C. (B) Preheated (80° C., 10 min), quenched (0° C., 30 s) gelatin (25 μg/mL) was applied to the sensor at an ambient temperature of 15° C.
Surface Plasmon Resonance (SPR). […] However, there were major differences observed during the association phase. At 37° C., there was a much higher amount of gelatin adsorbed to all the peptides tested on the surface when compared to 15° C. […] At 15° C., gelatin adsorbed to the surface at a much slower rate. […] However, this lower adsorption rate can be due to a reduced diffusion rate near the surface or a more condensed gelatin structure at this lower temperature.
Dimeric CHP is able to hybridize effectively with denatured collagens with faster folding kinetics than current, monomeric CHPs. Surface plasmon resonance (SPR) was used to measure the ability of the CHPs to trap denatured collagen from solution.

binding affinity to gelatin compared to monomeric form [1]: clear increase in binding affinity
Substance: [(GPO)6G3)2KG [6d]
binding to gelatin wells at 37° C. without preheating [2]: bind more significantly than the GPO9 monomer without preheating
ability to bind gelatin (porcine gelatin; 15° C.): only able to bind gelatin at a rate comparable to the monomeric CHPs
ability to bind gelatin (porcine gelatin; 37° C.): higher ability to bind gelatin than that of an equivalent number of strands in their monomeric counterparts
